The target of assay [1] is T1, fCD22 (fragment of human Siglec 2) (Homo sapiens, UniProt P20273).
T1 construct: A fragment of human Siglec 2 (fCD22, residue 1–332, MW 37.4 kDa); made in house; host or cells: wild-type CHO cells
T1 sequence (P20273 20-332): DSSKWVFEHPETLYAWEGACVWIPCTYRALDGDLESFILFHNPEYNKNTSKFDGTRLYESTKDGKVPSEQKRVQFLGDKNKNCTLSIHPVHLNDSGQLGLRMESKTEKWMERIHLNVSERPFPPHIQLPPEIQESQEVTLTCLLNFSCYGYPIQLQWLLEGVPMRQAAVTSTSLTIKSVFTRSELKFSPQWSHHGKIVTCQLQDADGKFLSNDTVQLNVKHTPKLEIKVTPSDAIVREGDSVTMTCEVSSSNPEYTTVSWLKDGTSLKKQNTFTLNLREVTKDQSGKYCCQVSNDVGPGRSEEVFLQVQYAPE
Description: COIN-nMS affinity measurement. In kind it is binding.

For assay [2], the target named is T1, fCD22 (fragment of human Siglec 2). The following applies: literature value; ref S3; cited from earlier work.
Assay [3] shares this target. Nature of the assay: direct nMS affinity measurement. In kind it is binding. Conditions: individual glycan; ammonium acetate 200 mM, pH 6.9.
Assay [4] deals with T2, DC-SIGN CRD (Homo sapiens, UniProt Q9NNX6).
T2 sequence (Q9NNX6 250-404): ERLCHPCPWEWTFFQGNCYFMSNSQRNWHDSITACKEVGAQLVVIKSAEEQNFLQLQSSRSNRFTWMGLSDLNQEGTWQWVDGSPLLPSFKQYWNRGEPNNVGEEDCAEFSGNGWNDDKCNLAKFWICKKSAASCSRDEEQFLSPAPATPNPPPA
Nature of the assay: COIN-nMS affinity measurement. In kind it is binding. On the set-up: The carbohydrate recognition domain (CRD) of DC-SIGN (residues 250–404, MW 17 794 Da); made in house.

Assay [5] concerns the target T3, GAL-3C (Homo sapiens, UniProt P17931). Nature of the assay: direct nMS (ESI-MS) affinity measurement at known concentrations. In kind it is binding. More on the design: human Galectin-3 (GAL-3C, residues 107–250, molecular weight (MW) 16 327 Da); key: NB: No binding detected. Conditions: glycans present as a mixture (G2, G5-G13); pH 6.9.
Assay [6] addresses T4, GNA (Galanthus nivalis, UniProt P30617).
T4 sequence (P30617 24-128 limits assumed): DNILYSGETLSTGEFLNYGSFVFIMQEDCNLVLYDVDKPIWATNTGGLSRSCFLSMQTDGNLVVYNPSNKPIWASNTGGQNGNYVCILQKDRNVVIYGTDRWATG
Description: COIN-CaR-nMS. In kind it is binding. The following applies: purified glycan; ammonium acetate 200 mM, pH 6.9.

Assay [7] deals with T2, DC-SIGN CRD. Nature of the assay: direct nMS affinity measurement. On the set-up: The carbohydrate recognition domain (CRD) of DC-SIGN (residues 250–404, MW 17 794 Da); made in house. In kind it is binding. The following applies: pH 7.4.
In assay [8] the target is T4, GNA. Description: direct nMS (ESI-MS) measurement. In kind it is binding. Conditions: read-out: Kd by direct nMS (column Kd (Literature)).
Assay [9] has as its target T5, GAL-7 homodimer (Homo sapiens, UniProt P47929).
T5 construct: made in house
Description: direct nMS affinity measurement. In kind it is binding. More on the design: key: NB: No binding detected. The following applies: glycans present as a mixture (G2, G5-G13); pH 6.9.

Assay [10] has as its target T5, GAL-7 homodimer. Nature of the assay: COIN-nMS affinity measurement. In kind it is binding. On the set-up: key: NB: No binding detected. The following applies: glycans present as a mixture (G2, G5-G13); average of eight measurements; pH 6.9.
For assay [11], the target named is T3, GAL-3C. Description: COIN-nMS affinity measurement. In kind it is binding. More on the design: human Galectin-3 (GAL-3C, residues 107–250, molecular weight (MW) 16 327 Da); key: NB: No binding detected. The following applies: glycans present as a mixture (G2, G5-G13); average of eight measurements; pH 6.9.
The next assay concerns the target Siglec-7. The following applies: ITC; cited from earlier work.
The next assay addresses MAA. Description: Isothermal titration calorimetry (ITC). In kind it is binding, Maackia amurensis. The following applies: ammonium acetate 200 mM, 25 °C, read-out: apparent Kd by ITC (Literature).
Assay [12] has as its target SNA (Sambucus nigra agglutinin) (Sambucus nigra, UniProt Q41358). Nature of the assay: biochemical. In kind it is binding.
For assay [13], the system named is MAA (Maackia amurensis agglutinin). Nature of the assay: COIN-CaR-nMS. In kind it is binding.
Another assay deals with Sig7-Fc (Homo sapiens, UniProt Q9Y286). Nature of the assay: COIN-CaR-nMS. In kind it is binding. On the set-up: Siglec 7-Fc (Sig7-Fc, residue 1–345, MW 150 kDa); His6 (C); made in house; host or cells: wild-type CHO cells. Conditions: N-glycan natural libraries and purified oligosaccharides; pH 6.9; read-out: Kd.
Sequence of Sig7-Fc (Q9Y286 19-345): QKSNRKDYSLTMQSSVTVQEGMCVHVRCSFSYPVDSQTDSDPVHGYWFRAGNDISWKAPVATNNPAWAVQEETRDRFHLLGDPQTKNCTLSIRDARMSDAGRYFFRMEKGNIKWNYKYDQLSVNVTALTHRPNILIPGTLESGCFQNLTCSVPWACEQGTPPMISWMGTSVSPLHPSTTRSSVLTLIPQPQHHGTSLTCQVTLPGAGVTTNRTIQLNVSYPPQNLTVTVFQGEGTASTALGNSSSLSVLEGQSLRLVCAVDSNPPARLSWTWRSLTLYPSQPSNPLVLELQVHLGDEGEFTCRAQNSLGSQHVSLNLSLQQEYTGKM
The target of a further assay is SARS-CoV-2 RBD (Severe acute respiratory syndrome coronavirus 2, UniProt P0DTC2). Description: biochemical. In kind it is binding. The following applies: pH 6.9.
The target in assay [14] is T6, AAL (Aleuria Aurantia lectin) (Aleuria aurantia, UniProt P18891).
T6 construct: purchased Vector Laboratories (Newark, CA, USA)
T6 sequence (P18891 1-313): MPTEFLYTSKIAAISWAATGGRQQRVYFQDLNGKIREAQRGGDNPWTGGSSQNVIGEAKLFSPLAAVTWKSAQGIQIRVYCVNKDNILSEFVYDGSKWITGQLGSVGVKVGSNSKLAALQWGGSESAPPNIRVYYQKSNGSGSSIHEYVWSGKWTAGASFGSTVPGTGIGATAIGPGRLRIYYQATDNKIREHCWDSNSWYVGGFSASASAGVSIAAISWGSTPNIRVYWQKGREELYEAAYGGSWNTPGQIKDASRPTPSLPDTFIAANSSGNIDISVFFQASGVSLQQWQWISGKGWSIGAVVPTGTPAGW
Description: COIN-CaR-nMS. In kind it is binding. The following applies: N-glycan natural libraries; pH 6.9.

For assay [15], the target named is RCA-I (Ricinus communis agglutinin) (Ricinus communis, UniProt P06750). In kind it is binding. The following applies: pH 6.9; read-out: Kd (Native).
Assay [16] deals with T3, GAL-3C. On the set-up: human Galectin-3 (GAL-3C, residues 107–250, molecular weight (MW) 16 327 Da). The following applies: known Kd used to calculate glycan concentration; cited from earlier work.

Several values for one entry are separate records, joined by “and”; a condition that tells them apart may be missing. Equal values may be shown once. Read-outs that look alike come from different tables or passages of the source.

Sequence of SNA (Sambucus nigra agglutinin) (Q41358 309-570 limits assumed): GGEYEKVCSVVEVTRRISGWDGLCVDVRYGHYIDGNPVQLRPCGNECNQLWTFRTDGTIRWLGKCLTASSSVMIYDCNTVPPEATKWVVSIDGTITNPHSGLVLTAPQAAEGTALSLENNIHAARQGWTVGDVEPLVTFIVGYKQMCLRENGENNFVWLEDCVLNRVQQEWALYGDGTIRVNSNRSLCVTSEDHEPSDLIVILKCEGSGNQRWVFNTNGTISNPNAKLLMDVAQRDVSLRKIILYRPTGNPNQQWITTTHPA
Sequence of SNA (Sambucus nigra agglutinin) (Q41358 29-289 partner limits assumed): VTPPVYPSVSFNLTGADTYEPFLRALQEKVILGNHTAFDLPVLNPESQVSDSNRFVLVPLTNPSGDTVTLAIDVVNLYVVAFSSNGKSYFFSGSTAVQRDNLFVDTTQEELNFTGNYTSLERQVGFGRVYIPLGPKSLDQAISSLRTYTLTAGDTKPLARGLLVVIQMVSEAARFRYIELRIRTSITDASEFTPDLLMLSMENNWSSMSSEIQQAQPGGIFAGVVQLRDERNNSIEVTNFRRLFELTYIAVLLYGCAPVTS
T3 sequence (P17931 107-250): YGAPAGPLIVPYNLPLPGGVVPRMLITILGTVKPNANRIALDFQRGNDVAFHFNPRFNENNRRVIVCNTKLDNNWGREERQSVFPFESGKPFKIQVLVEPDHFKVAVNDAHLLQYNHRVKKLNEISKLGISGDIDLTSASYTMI
T5 sequence (P47929 whole entry): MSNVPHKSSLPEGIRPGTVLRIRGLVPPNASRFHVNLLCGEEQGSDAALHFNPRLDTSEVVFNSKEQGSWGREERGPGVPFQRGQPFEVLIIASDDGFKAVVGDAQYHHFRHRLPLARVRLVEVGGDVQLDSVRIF

For `CC(=O)NC1C(O)OC(CO)C(OC2OC(CO)C(OC3OC(COC4OC(CO)C(O)C(O)C4OC4OC(CO)C(OC5OC(COC6(C(=O)O)CC(O)C(NC(C)=O)C(C(O)C(O)CO)O6)C(O)C(O)C5O)C(O)C4NC(C)=O)C(O)C(OC4OC(CO)C(O)C(O)C4OC4OC(CO)C(OC5OC(COC6(C(=O)O)CC(O)C(NC(C)=O)C(C(O)C(O)CO)O6)C(O)C(O)C5O)C(O)C4NC(C)=O)C3O)C(O)C2NC(C)=O)C1O` [Glycan G4, [α-D-Neu5Ac-(2→6)-β-D-Gal-(1→4)-β-D-GlcNAc-(1→2)-α-D-Man-(1→3)]-[α-D-Neu5Ac-(2→6)-β-D-Gal-(1→4)-β-D-GlcNAc-(1→2)-α-D-Man-(1→6)]-β-D-Man(1→4)-β-D-GlcNAc-(1→4)-D-GlcNAc], the Kd was 23.5 ± 1.4 µM in assay [1] (global fit of data sets at 30, 50, 75 µM glycan, read-out: Kd (COIN-nMS, global fit)); 25.4 ± 2.2 µM in [1] (glycan concentration 30 µM, pH 6.9, read-out: Kd (COIN-nMS, individual experiments)); 37.5 ± 0.5 µM in assay [1] (glycan concentration 50 µM, pH 6.9, read-out: Kd (COIN-nMS, individual experiments)); 23.4 ± 0.7 µM in [1] (glycan concentration 75 µM, pH 6.9, read-out: Kd (COIN-nMS, individual experiments)); 13.1 ± 0.6 µM in assay [2]; 13.1 ± 0.6 µM in assay [3].

`OC[C@H]1O[C@H](O[C@@H]2[C@@H](OC[C@H]3O[C@H](OC[C@H]4OC(O)[C@@H](O)[C@@H](O[C@H]5O[C@H](CO)[C@@H](O)[C@H](O)[C@@H]5O[C@H]5O[C@H](CO)[C@@H](O)[C@H](O)[C@@H]5O[C@H]5O[C@H](CO)[C@@H](O)[C@H](O)[C@@H]5O)[C@@H]4O)[C@@H](O)[C@@H](O[C@H]4O[C@H](CO)[C@@H](O)[C@H](O)[C@@H]4O[C@H]4O[C@H](CO)[C@@H](O)[C@H](O)[C@@H]4O)[C@@H]3O)O[C@H](CO)[C@@H](O)[C@@H]2O)[C@@H](O)[C@@H](O)[C@@H]1O` (stereo partly drawn) [Glycan G5, α-D-Man-(1→2)-α-D-Man-(1→6)-[Man-(1→2)-α-D-Man-(1→3)]-α-D-Man-(1→6)-[Man-(1→2)-α-D-Man-(1→2)-α-D-Man-(1→3)]-α-D-Man]: the Kd amounted to 235 ± 12.6 µM at DC-SIGN CRD [4] (global fit of data sets at 75, 100, 125 µM glycan, read-out: Kd (COIN-nMS, global fit)); 212 ± 2.2 µM at DC-SIGN CRD [4] (glycan concentration 75 µM, pH 7.4, read-out: Kd (COIN-nMS, individual experiments)); 246.7 ± 1 µM at DC-SIGN CRD [4] (glycan concentration 100 µM, pH 7.4, read-out: Kd (COIN-nMS, individual experiments)); 234 ± 1.5 µM on DC-SIGN CRD [4] (glycan concentration 125 µM, pH 7.4, read-out: Kd (COIN-nMS, individual experiments)); 240 ± 40 µM at DC-SIGN CRD [4] (glycans present as a mixture (G2, G5, G10, G14-G20), average of six measurements, pH 7.4, read-out: Kd (COIN-nMS)); 553.2 ± 1 µM at GNA [6]. The Kd worked out at 230 ± 20 µM on DC-SIGN CRD [7] (glycans present as a mixture (G2, G5, G10, G14-G20)); 231 ± 17.3 µM on DC-SIGN CRD [7] (individual glycan, ammonium acetate 200 mM, 2.5 mM calcium); 774 µM on GNA [8]. The “Kd (nMS)” value at GAL-3C [5] and at GAL-7 homodimer [9] was “NB” throughout. In addition, the “Kd (COIN-nMS)” value was “NB and do not bind” on GAL-7 homodimer [10]; “NB and do not bind” at GAL-3C [11].

In the case of `CC(=O)N[C@H]1[C@H]([C@H](O)[C@H](O)CO)O[C@@](O[C@H]2[C@@H](O)[C@@H](CO)O[C@@H](O[C@H]3[C@H](O)[C@@H](O)C(O)O[C@@H]3CO)[C@@H]2O)(C(=O)O)C[C@@H]1O` (stereo partly drawn) [Glycan G22, α-D-Neu5Ac-(2→3)-β-D-Gal-(1→4)-D-Glc], the Kd at Siglec-7 was 680 µM; on MAA, 4 ± 2 µM.

Regarding `CC(=O)N[C@H]1[C@H]([C@H](O)[C@H](O)CO)O[C@@](OC[C@H]2O[C@@H](O[C@H]3[C@H](O)[C@@H](NC(C)=O)C(O)O[C@@H]3CO)[C@H](O)[C@@H](O)[C@H]2O)(C(=O)O)C[C@@H]1O` (stereo partly drawn) [Glycan G23, α-D-Neu5Ac-(2→6)-β-D-Gal-(1→4)-D-GlcNAc], the Kd in assay [12] (Kd (COIN-CaR-nMS)) was 0.6 µM; in assay [12] (Kd (COIN-CaR-nMS), two ligands), 700 nM and 900 nM and 400 nM (2×) and 300 nM and 600 nM; in [12] (pH 6.9, read-out: Kd, Native library (-NeuS)) it was 0.55 ± 0.16 µM; at Sig7-Fc, 265 ± 66 µM; on SARS-CoV-2 RBD, 76 ± 9 µM. Besides, the “fold weaker binding than G25” value in [13] is 2 fold.

As for `CC(=O)N[C@H]1[C@H](O[C@H]2[C@H](O)[C@@H](NC(C)=O)C(O)O[C@@H]2CO[C@@H]2O[C@@H](C)[C@@H](O)[C@@H](O)[C@@H]2O)O[C@H](CO)[C@@H](O[C@@H]2O[C@H](CO[C@H]3O[C@H](CO)[C@@H](O)[C@H](O)[C@@H]3O[C@@H]3O[C@H](CO)[C@@H](O)[C@H](O)[C@H]3NC(C)=O)[C@@H](O)[C@H](O[C@H]3O[C@H](CO)[C@@H](O)[C@H](O)[C@@H]3O[C@@H]3O[C@H](CO)[C@@H](O)[C@H](O)[C@H]3NC(C)=O)[C@@H]2O)[C@@H]1O` (stereo partly drawn) [HexNAc4Hex3Fuc1], the Kd in assay [14] was found to be 2.6 ± 0.57 µM; in [15], 1.73 ± 0.08 µM.

Regarding “α-D-GalNAc(1→3)-[α-L-Fuc(1→2)]-β-Gal(1→4)-D-GlcNAc [Glycan G24]”, the Kd at GAL-3C [16] is 7.2 ± 0.4 µM.

The values are drawn from article PMC10303200 (ACS Central Science, 2023).
